According to PMC13626384 (Journal of medicinal chemistry, 2025):
“Also recorded” adds a separate entry of the source. Like-named read-outs stand apart in the source and are kept apart here.

What was measured:
[1] = in vitro; conditions: mouse liver microsomes
[2] = tested on: H460 cell line; assay: Cytotoxicity against H460 cells; format: cell-based
[3] = tested on: SF188 cell line; assay: Cytotoxicity against SF188 cells; format: cell-based, human
[4] = Liver microsomal stability; conditions: mouse liver microsomes
[5] = Plasma stability; format: in vitro ADME; conditions: for remaining at 2 h / remaining at 5 h: mouse, plasma, Plasma Stability % remaining; for Plasma Stability % remaining: mouse plasma
[6] = Caco-2 cell permeability and efflux; format: in vitro ADME, human; conditions: human
[7] = target: human immunoproteasome (i20S) β2 (Homo sapiens, UniProt P40306+P49720); assay: Proteasome subunit inhibition, i20S β2; format: biochemical
[8] = tested on: mice; assay: Toxicity observation in the PK study; format: in vivo; conditions: 1 mg/kg i.v., 1 mg/kg
[9] = target: human immunoproteasome (i20S) β1 (Homo sapiens, UniProt P28065+P40306); assay: Proteasome subunit inhibition, i20S β1; format: biochemical
[10] = tested on: Caco-2 cells; assay: Caco-2 cell permeability and efflux; format: in vitro ADME, human; conditions: for Efflux Ratio: Caco-2; for % Recovery (A-B): Caco-2, A-B direction; for % Recovery (B-A): Caco-2, B-A direction; for Pe (A-B): Caco-2, apical to basolateral; for Pe (B-A): Caco-2, basolateral to apical
[11] = PAMPA-BBB permeability assay; conditions: PAMPA-BBB
[12] = target: human immunoproteasome (i20S) β5 (Homo sapiens, UniProt P20618+P28062); assay: Proteasome subunit inhibition, i20S β5; format: biochemical; conditions: read-out: i20S β5 IC50 ± SD; read 60 to 90 minutes after start
[13] = In vivo pharmacokinetics, plasma and brain; design: species or system Male C57BL/6 mice; conditions: mice
[14] = tested on: D283-med cell line; assay: Cytotoxicity against D283-med cells; format: cell-based, human; conditions: read-out: D283-med IC50
[15] = tested on: human foreskin fibroblasts (HFF-1) cell line; assay: Cytotoxicity against HFF-1 cells; format: cell-based; conditions: read-out: HFF-1 IC50; non-cancerous fibroblasts
[16] = target: human constitutive proteasome (c20S) β1 (Homo sapiens, UniProt P28072+Q99436); assay: Proteasome subunit inhibition, c20S β1; format: biochemical
[17] = read-out: H460 IC50, non-small cell lung cancer cell line
[18] = Homo sapiens, SF-188, read-out: SF188 IC50, glioblastoma cell line
[19] = read-out: SF188 IC50, glioblastoma cell line
[20] = read-out: i20S β2 IC50 ± SD, read 60 to 90 minutes after start
[21] = read-out: i20S β1 IC50 ± SD, read 60 to 90 minutes after start
[22] = 10 mg/kg i.v., with and without tariquidar
[23] = 10 mg/kg i.v., compound by itself, 30 minutes
[24] = 10 mg/kg i.v., pretreated with tariquidar, 0.5 h

CC(C)C[C@H](NC(=O)C(CSc1c(F)c(F)c(F)c(F)c1F)NC(=O)[C@@H](NC(=O)CCc1ccccc1)C(C)C)C(=O)[C@@]1(C)CO1 (stereo in doubt) [Compound 2, (S)-3-Methyl-N-((S)-1-(((S)-4-methyl-1-((R)-2-methyloxiran-2-yl)-1-oxopentan-2-yl)amino)-1-oxo-3-((perfluorophenyl)thio)propan-2-yl)-2-(3-phenylpropanamido)butanamide]
half-life [1]: < 5 min | IC50 [2, 17]: 632 ± 167 nM | IC50 [3, 18]: < 200 nM | IC50 [3, 19]: 132 ± 22 nM | Microsomal Stability Clearance Category [4]: High | remaining at 2 h ([5]; after 2 hr): > 99% | remaining at 5 h ([5]; after 5 hr): > 75%

CC(C)C[C@H](NC(=O)C(CSc1c(F)c(F)c(F)c(F)c1F)NC(=O)[C@@H](NC(=O)c1cc(Cl)ccc1Cl)C(C)C)C(=O)[C@@]1(C)CO1 (stereo in doubt) [Compound 4, 2,5-Dichloro-N-((S)-3-methyl-1-(((S)-1-(((S)-4-methyl-1-((R)-2-methyloxiran-2-yl)-1-oxopentan-2-yl)amino)-1-oxo-3-((perfluorophenyl)thio)propan-2-yl)amino)-1-oxobutan-2-yl)benzamide]
half-life [1]: < 5 min | Papp B→A ([6]; Caco-2): 1.3 ×10⁻⁶ cm/s | recovery ([6]; Caco-2, % Recovery (A-B), Caco-2, A-B direction): 27% | recovery ([6]; Caco-2, % Recovery (B-A), Caco-2, B-A direction): 42% | IC50 [3, 18]: < 200 nM | IC50 [3, 19]: 192 ± 70 nM | Microsomal Stability Clearance Category [4]: High | remaining at 2 h ([5]; after 2 hr): > 99% | remaining at 5 h ([5]; after 5 hr): > 75%

CC(C)C[C@H](NC(=O)[C@@H]1Cc2c(F)c(F)c(c(F)c2F)Sc2cccc(c2)CC(=O)N[C@@H](C(C)C)C(=O)N1)C(=O)[C@@]1(C)CO1 [Compound 10, (5S,8S)-3^2,3^3,3^5,3^6-Tetrafluoro-8-isopropyl-N-((S)-4-methyl-1-((R)-2-methyloxiran-2-yl)-1-oxopentan-2-yl)-7,10-dioxo-2-thia-6,9-diaza-1(1,3),3(1,4)-dibenzenacycloundecaphane-5-carboxamide]
IC50 [7, 20]: 464 ± 50.1 nM | IC50 [2, 17]: 2590 nM | Signs of toxicity [8]: no signs of toxicity were observed; also recorded: lack of toxicity | IC50 [9, 21]: 163 ± 14.9 nM | Efflux Ratio [10]: 1.4 | % Recovery (A-B) [10]: 83% | % Recovery (B-A) [10]: 75% | Pe (A-B) [10]: 25.1 10^−6 cm/sec | Pe (B-A) [10]: 34.4 10^−6 cm/sec | % Recovery [11]: 49% | Mean Permeability [11]: 3.48 10^−6 cm/sec | Pe (effective permeability) [11]: around 4 10^−6 cm s^−1 | IC50 [12]: 532 ± 56.9 nM | Mean B/P ratio ([13]; 1 mg/kg i.v., 1.0 h): 0.78 | Mean Brain Con ([13]; 1 mg/kg i.v., 1.0 h): 12.0 ng/g | Mean Plasma Conc. ([13]; 1 mg/kg i.v., 1.0 h): 16.8 ng/mL | Mean Plasma Conc. ([13]; 1 mg/kg i.v., 4.0 h): 5.4 ng/mL | Mean Brain Con ([13]; 1 mg/kg i.v., 4.0 h, LLOQ 2.00 ng/mL, 1 mg/kg): below the limit of quantification and BLQ | Plasma Cmax ([13]; 1 mg/kg i.v., earliest time point): 423 ng/mL | IC50 [3, 19]: 123 ± 8 nM | Microsomal Stability Clearance Category [4]: High | Microsomal Stability mCLint [4]: 202 µL/min/mg | IC50 ([14]; medulloblastoma cell line): 17 ± 7 nM | Plasma Stability % remaining ([5]; after 2 hr): 98 after 2 hr % | Plasma Stability % remaining ([5]; after 5 hr): more than 75%

CC(C)C[C@H](NC(=O)[C@@H]1Cc2c(F)c(F)c(c(F)c2F)S(=O)(=O)c2cccc(c2)CC(=O)N[C@@H](C(C)C)C(=O)N1)C(=O)[C@@]1(C)CO1 [Compound 11, (5S,8S)-3^2,3^3,3^5,3^6-Tetrafluoro-8-isopropyl-N-((S)-4-methyl-1-((R)-2-methyloxiran-2-yl)-1-oxopentan-2-yl)-7,10-dioxo-2-thia-6,9-diaza-1(1,3),3(1,4)-dibenzenacycloundecaphane-5-carboxamide 2,2-dioxide]
IC50 [7, 20]: 829 ± 187 nM | IC50 [2, 17]: 79 ± 20 nM | IC50 [15]: 85 ± 7 nM | IC50 [9, 21]: 379 ± 47.7 nM | % Recovery (A-B) [10]: 91% | % Recovery (B-A) [10]: 97% | Pe (A-B) [10]: 7.2 10^−6 cm/sec | Pe (B-A) [10]: 45.4 10^−6 cm/sec | % Recovery [11]: 64% | Mean Permeability [11]: 2.15 10^−6 cm/sec | IC50 [12]: 830 ± 260 nM | Plasma half-life [13, 22]: 1.2 to 1.4 h | Brain tissue concentration ([13]; 10 mg/kg i.v., with and without tariquidar, 30 minutes and 2 hours): no quantifiable concentrations were detected | IC50 [3, 19]: 9.8 ± 1.2 nM | Microsomal Stability Clearance Category [4]: Medium | Microsomal Stability mCLint [4]: 43 µL/min/mg | Microsomal Stability t1/2 [4]: 32 min | IC50 ([14]; medulloblastoma cell line): 6 ± 2 nM | Plasma Stability % remaining ([5]; after 2 hr): 88%

CC(C)C[C@H](NC(=O)[C@@H]1Cc2c(F)c(F)c(c(F)c2F)Sc2cccc(c2)CC(=O)NC(C)(C)C(=O)N1)C(=O)[C@@]1(C)CO1 [Compound 31, (S)-3^2,3^3,3^5,3^6-Tetrafluoro-8,8-dimethyl-N-((S)-4-methyl-1-((R)-2-methyloxiran-2-yl)-1-oxopentan-2-yl)-7,10-dioxo-2-thia-6,9-diaza-1(1,3),3(1,4)-dibenzenacycloundecaphane-5-carboxamide]
IC50 [7, 20]: 1060 ± 121 nM | IC50 [2, 17]: 175 ± 16 nM | IC50 [15]: 122 ± 14 nM | IC50 [9, 21]: 207 ± 14.3 nM | Efflux Ratio [10]: 17.6 | % Recovery (A-B) [10]: 94% | % Recovery (B-A) [10]: 73% | Pe (A-B) [10]: 3.6 10^−6 cm/sec | Pe (B-A) [10]: 63.0 10^−6 cm/sec | % Recovery [11]: 64% | Mean Permeability [11]: 3.70 10^−6 cm/sec | IC50 [12]: 763 ± 199 nM | IC50 [3, 19]: 24 ± 9 nM | Microsomal Stability Clearance Category [4]: High | Microsomal Stability mCLint [4]: 182 µL/min/mg | Microsomal Stability t1/2 [4]: 8 min | IC50 ([14]; medulloblastoma cell line): 57 ± 14 nM | Plasma Stability % remaining ([5]; after 2 hr): 81 after 2 hr %

C[C@@]12OC(=O)[C@]1([C@@H](O)[C@@H]1C=CCCC1)NC(=O)[C@@H]2CCCl [Marizomib, reference compound]
half-life [1]: < 5 min | IC50 [7]: 207 ± 22.3 nM | IC50 ([2]; Homo sapiens, NCI-H460, read-out: H460 IC50): 73 ± 6 nM | IC50 [16]: 336 ± 27.2 nM | IC50 [9]: 40.5 ± 1.7 nM | recovery ([11]; PAMPA, % Recovery): 2% | Papp ([11]; PAMPA, Mean Permeability): 0.13 ×10⁻⁶ cm/s | IC50 ([3]; Homo sapiens, SF-188, read-out: SF188 IC50): 22 ± 4 nM | Microsomal Stability Clearance Category [4]: High | IC50 ([14]; Homo sapiens, D283 Med): 70 ± 3 nM | remaining at 2 h ([5]; after 2 hr): 20%

S)-N-((S)-4-Methyl-1-((R)-2-methyloxiran-2-yl)-1-oxopentan-2-yl)-8,11-dioxo-2-oxa-9,12-diaza-1(1,4)-benzenacyclotetradecaphane-13-carboxamide [Compound 35]
IC50 [7, 20]: 1750 ± 240 nM | IC50 [2, 17]: 853 ± 90 nM | IC50 [9, 21]: 78.2 ± 5.3 nM | Efflux Ratio [10]: 2.5 | % Recovery (A-B) [10]: 98% | % Recovery (B-A) [10]: 93% | Pe (A-B) [10]: 18.6 10^−6 cm/sec | Pe (B-A) [10]: 46.5 10^−6 cm/sec | % Recovery [11]: 100% | Mean Permeability [11]: 6.81 10^−6 cm/sec | Pe (effective permeability) [11]: 6.8 10^−6 cm s^−1 | IC50 [12]: 1900 ± 587 nM | Mean B/P ratio ([13]; 10 mg/kg i.v., alone, 1.0 h): 0.08 | Mean Brain Con ([13]; 10 mg/kg i.v., alone, 1.0 h): 26.3 ng/g | Mean Plasma Conc. ([13]; 10 mg/kg i.v., alone, 1.0 h): 330 ng/mL | Mean Plasma Conc. ([13]; 10 mg/kg i.v., alone, 2.0 h): 5.3 ng/mL | Mean Brain Con ([13]; 10 mg/kg i.v., alone, 2.0 h, LLOQ 2.00 ng/mL, 10 mg/kg): below the quantification limit and BLQ | Brain concentration [13, 23]: 26 ng/mL | Brain-to-plasma ratio [13, 23]: 0.08 | Mean Brain Con ([13]; 10 mg/kg i.v., pretreated with tariquidar (13 mg/kg, i.p.), 0.5 h): 137.0 ng/g | Mean B/P ratio [13, 24]: 0.80 | Mean Plasma Conc. [13, 24]: 165.7 ng/mL | Mean Plasma Conc. ([13]; 10 mg/kg i.v., pretreated with tariquidar, 2.0 h): 5.0 ng/mL | Mean Brain Con ([13]; 10 mg/kg i.v., pretreated with tariquidar, 2.0 h, LLOQ 2.00 ng/mL): below the quantification limit and BLQ | Brain concentration ([13]; 10 mg/kg i.v., tariquidar group, 30 minutes): 137 ng/mL | Plasma Cmax (average) [13, 22]: 2453 ng/mL | Plasma half-life [13, 22]: ~ 0.25 hours | IC50 [3, 19]: 806 ± 388 nM | Microsomal Stability Clearance Category [4]: Low | Microsomal Stability mCLint [4]: 10 µL/min/mg | IC50 ([14]; medulloblastoma cell line): 332 ± 12 nM | Plasma Stability % remaining ([5]; after 2 hr): 64 after 2 hr % | Plasma Stability % remaining ([5]; after 5 hr): more than 75%
